Source: patent US11473089B2, “Aptamer for ADAMTS5 and use for aptamer for ADAMTS5” (RIBOMIC INC., priority 2017, dated 2022)

Columns and labels:
ADAMTS5 = molecular target: T1, ADAMTS5 (Homo sapiens, UniProt Q9UNA0); experiment: ADAMTS5 enzyme inhibition, aggrecan G1-IGD-G2 cleavage, sandwich ELISA detection (evaluation method 2); format: biochemical; conditions: Table 6; 2 nM aptamer; 0.2 nM ADAMTS5, 400 nM substrate, 30 min
T1 construct: purchased R&D systems
T1 sequence (Q9UNA0 262-930): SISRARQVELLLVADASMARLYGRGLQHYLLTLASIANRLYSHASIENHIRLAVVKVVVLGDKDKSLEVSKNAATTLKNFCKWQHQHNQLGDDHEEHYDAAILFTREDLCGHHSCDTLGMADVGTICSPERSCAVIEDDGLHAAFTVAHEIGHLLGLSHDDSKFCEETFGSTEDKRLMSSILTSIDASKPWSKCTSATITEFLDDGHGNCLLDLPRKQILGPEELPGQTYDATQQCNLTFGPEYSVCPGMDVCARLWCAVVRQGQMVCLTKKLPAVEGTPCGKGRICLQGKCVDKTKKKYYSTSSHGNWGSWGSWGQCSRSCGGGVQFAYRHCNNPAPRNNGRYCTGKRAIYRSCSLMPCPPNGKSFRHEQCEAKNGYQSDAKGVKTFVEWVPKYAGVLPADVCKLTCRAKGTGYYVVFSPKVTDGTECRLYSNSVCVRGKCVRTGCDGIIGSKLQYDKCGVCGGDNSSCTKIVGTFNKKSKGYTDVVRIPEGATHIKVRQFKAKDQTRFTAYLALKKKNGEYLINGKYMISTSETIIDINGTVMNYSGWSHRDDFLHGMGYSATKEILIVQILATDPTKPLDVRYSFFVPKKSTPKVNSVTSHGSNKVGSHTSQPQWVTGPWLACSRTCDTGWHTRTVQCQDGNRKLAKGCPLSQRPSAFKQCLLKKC
Procedure: On the other hand, the aptamers having the sequences shown by the sequences of SEQ ID NOs: 11(34)-11(35) and SEQ ID NO: 15 were evaluated by the following method (evaluation method 2). The cleavage reaction of the substrate (aggrecan G1-IGD-G2) by ADAMTS5 was performed in the same manner as in Example 1 except the following points. The differences are that the final concentrations of ADAMTS5 and the substrate were respectively 0.2 nM and 400 nM (48 μg/mL), and that the enzyme reaction time was 30 min. After the reaction, the reaction was stopped by adding an excess amount of an ADAMTS5 small molecule inhibitor. The cleaved substrate was quantified by a sandwich ELISA method using two kinds of anti-aggrecan antibodies. […] Using this, the amount of cleaved substrate can be quantified. […] The inhibition rate of the test substance was calculated using the following equation. inhibition rate (%)=(PE−Papt)/(PE−P0)×100 wherein PE is the amount of a cleaved substrate with the addition of ADAMTS5, Papt is the amount of a cleaved substrate with the addition of a test substance, and P0 is the residual amount of a cleaved substrate without the addition of ADAMTS5.
The measurement results of the inhibitory activity of the aptamers having the sequences shown in SEQ ID NOs: 11(34)-11(35) and SEQ ID NO: 15 are shown in Table 6, evaluation method 2. […] “n.d.” means not determined. […]

HFLS-OA cells = experiment: aggrecan cleavage inhibitory activity in synovial cells; format: cell-based, human; conditions: Table 11, culture supernatant after 3 days
Procedure: The aggrecan cleavage inhibitory activity of the aptamers shown in SEQ ID NOs: 11(34), 28(13), 28(15), 28(18) in synovial cells was measured. The measurement was performed by the following method. Synovial cells (HFLS-OA cells) (manufactured by Cell Applications) derived from human knee osteoarthritis patients were seeded at 2×10^4 cells per well, and cultured for 16-24 hr. The culture method followed the manual of Cell Applications. After culturing, the medium was removed, the cells were washed with Basal Medium (manufactured by Cell Applications), and 500 ng of aggrecan G1-IGD-G2 (manufactured by R&D systems) diluted with Basal Medium as a substrate was added. The aptamer was added simultaneously with the substrate to the samples to be evaluated for inhibition by the aptamer. The cells were kept cultured and the culture supernatant was collected after 3 days. The added substrate is cleaved during culture by substrate-cleaving enzymes such as ADAMTS5 secreted from the HFLS-OA cells. The amount of the cleaved substrate fragment contained in the culture supernatant was quantified by the ELISA method described in Example 5. The substrate cleavage efficiency in this evaluation system was 1-8%. The nucleic acid shown in SEQ ID NO: 15 was used as a negative control.

Substance: 15 (AUUGGCACGGAGACAGCGCUCGCUUCUCGAUCACCAAU; listed as RNA, chemistry not given here) [compound 15]
- inhibitory activity (%) evaluation method 2 (ADAMTS5): 16.5%
- inhibition rate (%) 3 nM (HFLS-OA cells; 3 nM aptamer): 10%
- inhibition rate (%) 30 nM (HFLS-OA cells; 30 nM aptamer): 8%
- inhibition rate (%) 300 nM (HFLS-OA cells; 300 nM aptamer): 37%
